The compounds below were run against GLP1R (Homo sapiens, UniProt P43220) (assay: GLP1R cAMP assay (HTRF cAMP detection, agonist activity)). Conditions: Flp-In-293-GLP1R cells, 30 min at 37° C., read-out: EC50 (nM) Assay 1.
Format: cell-based
Design: host or cells: Flp-In-293
Protocol: GLP1R-mediated agonist activity was determined with a cell-based functional assay utilizing an HTRF (Homogeneous Time-Resolved Fluorescene) cAMP detection kit that measures CAMP levels in the cell. Reagents and equipment used in the assay are listed below, followed by the protocol.
• 1) Cell Line: Flp-In-293-GLP1R (constructed by Pharmaron Beijing Co., Ltd) • 2) Complete Medium: DMEM+10% FBS+1×Penicillin-Streptomycin+200 μg/mL HB • 3) Assay Buffer: 1×HBSS+20 mM HEPES+0.1% BSA+500 μM IBMX
• a) Seed Flpin-293-GLP1R cells at 20,000 cells/well into 384 well assay plate (6007680-50, PE) using complete medium. • b) Prepare 4×compound working solution with assay buffer. • c) Add 5 μL 4×compound working solution into cell plate, incubate 30 min at 37° C. • d) Dilute Eu-cAMP tracer (1/50) with lysis buffer and add 10 μl/well to assay plate. • e) Dilute Ulight-anti-cAMP (1/150) with lysis buffer and add 10 μl/well to assay plate. • f) Incubate 1 h at RT. • g) Read the plate at wavelengths of 665 nm and 615 nm on Envision 2105 plate reader.
• 3.1% Activity is calculated as follow:
% Activity=100−(Signalcmpd−SignalAve_PC)/(SignalAve_VC−SignalAve_PC)×100. • 3.2 Calculate EC50 and Plot effect-dose curve of cmpds:
Y=Bottom+(Top−Bottom)/(1+10^((Log EC50−X)*Hill Slope)) • X: log of agonist concentration; Y: % Activity.

Sequence of GLP1R (P43220 24-463, species assumed): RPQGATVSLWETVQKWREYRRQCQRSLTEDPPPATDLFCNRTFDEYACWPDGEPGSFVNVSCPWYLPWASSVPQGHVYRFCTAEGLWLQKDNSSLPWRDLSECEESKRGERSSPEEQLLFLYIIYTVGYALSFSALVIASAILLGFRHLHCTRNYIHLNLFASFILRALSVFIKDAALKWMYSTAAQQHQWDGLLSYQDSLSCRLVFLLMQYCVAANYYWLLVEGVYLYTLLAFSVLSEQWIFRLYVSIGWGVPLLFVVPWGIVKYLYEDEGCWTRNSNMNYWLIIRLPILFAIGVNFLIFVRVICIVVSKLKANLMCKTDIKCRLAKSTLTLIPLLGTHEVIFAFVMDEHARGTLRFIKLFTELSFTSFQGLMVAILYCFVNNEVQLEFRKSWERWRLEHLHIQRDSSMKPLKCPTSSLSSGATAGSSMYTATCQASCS

EC50	Compound
> 4 nM	N#Cc1ccc(COc2ccnc(C34CCN(Cc5nc6ccc(C(=O)O)cc6n5C[C@@H]5CCO5)CC3C4)c2)c(F)c1 (single isomer, unassigned) [Compound 1-2-A]
> 4 nM	N#Cc1ccc(COc2ccnc(C34CCN(Cc5nc6ccc(C(=O)O)cc6n5C[C@@H]5CCO5)CC3C4)c2)c(F)c1 (single isomer, unassigned) [Compound 1-2-B]
1.01 nM	N#Cc1ccc(COc2cccc(C34CCN(Cc5nc6ccc(C(=O)O)cc6n5C[C@@H]5CCO5)CC3C4)c2)c(F)c1 (single isomer, unassigned) [Compound 1-9-A]
1.05 nM	N#Cc1ccc(COc2cccc(C34CCN(Cc5nc6ccc(C(=O)O)cc6n5C[C@@H]5CCO5)CC3C4)c2)c(F)c1 (single isomer, unassigned) [Compound 1-9-B]
0.995 nM	N#Cc1ccc(COc2ccnc(C34CCN(Cc5nc6ccc(C(=O)O)cc6n5C[C@@H]5CCO5)CC3C4)n2)c(F)c1 (single isomer, unassigned) [Compound 1-11-A]
0.017 nM	N#Cc1ccc(COc2ccnc(C34CCN(Cc5nc6ccc(C(=O)O)cc6n5C[C@@H]5CCO5)CC3C4)n2)c(F)c1 (single isomer, unassigned) [Compound 1-11-B]
0.003 nM	COc1cc(C#N)ccc1COc1cccc(C23CCN(Cc4nc5ccc(C(=O)O)cc5n4C[C@@H]4CCO4)CC2C3)n1 (stereo partly drawn) [Compound 1-6, 2-((6-(6-((4-cyano-2-methoxybenzyl)oxy)pyridin-2-yl)-3-azabicyclo[4.1.0]heptan-3-yl)methyl)-1-(((S)-oxetan-2-yl)methyl)-1H-benzo[d]imidazole-6-carboxylic acid]
0.175 nM	N#Cc1ccc(COc2cccc(C34CCN(Cc5nc6ccc(C(=O)O)cc6n5C[C@@H]5CCO5)CC3C4)n2)cc1F (stereo partly drawn) [Compound 1-7, 2-((6-(6-((4-cyano-3-fluorobenzyl)oxy)pyridin-2-yl)-3-azabicyclo[4.1.0]heptan-3-yl)methyl)-1-(((S)-oxetan-2-yl)methyl)-1H-benzo[d]imidazole-6-carboxylic acid]
0.079 nM	N#Cc1ccc(COc2ccnc(C34CCN(Cc5nc6ccc(C(=O)O)cc6n5C[C@@H]5CCO5)CC3C4)n2)c(F)c1 (stereo partly drawn) [Compound 1-11, 2-((6-(4-((4-cyano-2-fluorobenzyl)oxy)pyrimidin-2-yl)-3-azabicyclo[4.1.0]heptan-3-yl)methyl)-1-(((S)-oxetan-2-yl)methyl)-1H-benzo[d]imidazole-6-carboxylic acid]
1.22 nM	N#Cc1ccc(COc2cccc(N3CC4CCC(C3)N4Cc3nc4ccc(C(=O)O)cc4n3C[C@@H]3CCO3)n2)c(F)c1 [Compound 2, 2-((−3-(6-((4-cyano-2-fluorobenzyl)oxy)pyridin-2-yl)-3,8-diazabicyclo[3.2.1]octan-8-yl)methyl)-1-(((S)-oxetan-2-yl)methyl)-1H-benzo[d]imidazole-6-carboxylic acid]
> 4 nM	N#Cc1ccc(COc2cccc(N3C4CC3CN(Cc3nc5ccc(C(=O)O)cc5n3C[C@@H]3CCO3)C4)n2)c(F)c1 [Compound 2-2, 2-((6-(6-((4-cyano-2-fluorobenzyl)oxy)pyridin-2-yl)-3,6-diazabicyclo[3.1.1]heptan-3-yl)methyl)-1-(((S)-oxetan-2-yl)methyl)-1H-benzo[d]imidazole-6-carboxylic acid]
> 4 nM	O=C(O)c1ccc2nc(CN3C4CC3CN(c3cccc(OCc5ccc(Cl)cc5F)n3)C4)n(C[C@@H]3CCO3)c2c1 [Compound 2-3, 2-((−3-(6-((4-chloro-2-fluorobenzyl)oxy)pyridin-2-yl)-3,6-diazabicyclo[3.1.1]heptan-6-yl)methyl)-1-(((S)-oxetan-2-yl)methyl)-1H-benzo[d]imidazole-6-carboxylic acid]
> 4 nM	N#Cc1ccc(COc2cccc(N3CC4CCC(C3)N4Cc3nc4ccc(C(=O)O)cc4n3C[C@@H]3CCO3)n2)cc1 [Compound 2-4, 2-[(3-{6-[(4-cyanophenyl)methoxy]pyridin-2-yl}-3,8-diazabicyclo[3.2.1]octan-8-yl)methyl]-3-[(2S)-oxetan-2-ylmethyl]-1,3-benzodiazole-5-carboxylic acid]
> 4 nM	O=C(O)c1ccc2nc(CN3C4CCC3CN(c3cccc(OCc5ccncc5)n3)C4)n(C[C@@H]3CCO3)c2c1 [Compound 2-5, 3-[(2S)-oxetan-2-ylmethyl]-2-({3-[6-(pyridin-4-ylmethoxy)pyridin-2-yl]-3,8-diazabicyclo[3.2.1]octan-8-yl}methyl)-1,3-benzodiazole-5-carboxylic acid]
0.643 nM	O=C(O)c1ccc2nc(CN3C4CCC3CN(c3cccc(OCc5ccc(Cl)cc5F)n3)C4)n(C[C@@H]3CCO3)c2c1 [Compound 2-6, 2-[(3-{6-[(4-chloro-2-fluorophenyl)methoxy]pyridin-2-yl}-3,8-diazabicyclo[3.2.1]octan-8-yl)methyl]-3-[(2S)-oxetan-2-ylmethyl]-1,3-benzodiazole-5-carboxylic acid]
> 4 nM	O=C(O)c1ccc2nc(CN3C4CCC3CN(c3cccc(OCc5ccc(F)cc5F)n3)C4)n(C[C@@H]3CCO3)c2c1 [Compound 2-7, 2-((−3-(6-((2,4-difluorobenzyl)oxy)pyridin-2-yl)-3,8-diazabicyclo[3.2.1]octan-8-yl)methyl)-1-(((S)-oxetan-2-yl)methyl)-1H-benzo[d]imidazole-6-carboxylic acid]
> 4 nM	Cc1ccc(COc2cccc(N3CC4CCC(C3)N4Cc3nc4ccc(C(=O)O)cc4n3C[C@@H]3CCO3)n2)c(F)c1 [Compound 2-8, 2-[(3-{6-[(2-fluoro-4-methylphenyl)methoxy]pyridin-2-yl}-3,8-diazabicyclo[3.2.1]octan-8-yl)methyl]-3-[(2S)-oxetan-2-ylmethyl]-1,3-benzodiazole-5-carboxylic acid]
> 4 nM	N#Cc1ccc(COc2cccc(N3CC4CCC(C3)N4Cc3nc4ccc(C(=O)O)cc4n3CC3CCO3)n2)c(F)c1 (stereo not shown) [Compound 2-9, 2-((−3-(6-((4-cyano-2-fluorobenzyl)oxy)pyridin-2-yl)-3,8-diazabicyclo[3.2.1]octan-8-yl)methyl)-1-(oxetan-2-ylmethyl)-1H-benzo[d]imidazole-6-carboxylic acid]
> 4 nM	N#Cc1ccc(COc2cccc(N3CC4CCC(C3)N4Cc3nc4ccc(C(=O)O)cc4n3C[C@@H]3CCCO3)n2)c(F)c1 [Compound 2-10, 2-((−3-(6-((4-cyano-2-fluorobenzyl)oxy)pyridin-2-yl)-3,8-diazabicyclo[3.2.1]octan-8-yl)methyl)-1-(((S)-tetrahydrofuran-2-yl)methyl)-1H-benzo[d]imidazole-6-carboxylic acid]
> 4 nM	N#Cc1ccc(COc2cccc(N3CC4CCC(C3)N4Cc3nc4ccc(C(=O)O)cc4n3CC3CCOC3)n2)c(F)c1 (stereo not shown) [Compound 2-11, 2-[(3-{6-[(4-cyano-2-fluorophenyl)methoxy]pyridin-2-yl}-3,8-diazabicyclo[3.2.1]octan-8-yl)methyl]-3-(oxolan-3-ylmethyl)-1,3-benzodiazole-5-carboxylic acid]
> 4 nM	N#Cc1ccc(COc2cccc(N3CC4CCC(C3)N4Cc3nc4ccc(C(=O)O)cc4n3Cc3ncco3)n2)c(F)c1 [Compound 2-12, 2-((−3-(6-((4-cyano-2-fluorobenzyl)oxy)pyridin-2-yl)-3,8-diazabicyclo[3.2.1]octan-8-yl)methyl)-1-(oxazol-2-ylmethyl)-1H-benzo[d]imidazole-6-carboxylic acid]
> 4 nM	O=C(O)c1ccc2nc(CN3C4CCC3CN(c3cccc(OCc5ccncc5F)n3)C4)n(C[C@@H]3CCO3)c2c1 [Compound 2-13, 2-[(3-{6-[(3-fluoropyridin-4-yl)methoxy]pyridin-2-yl}-3,8-diazabicyclo[3.2.1]octan-8-yl)methyl]-3-[(2S)-oxetan-2-ylmethyl]-1,3-benzodiazole-5-carboxylic acid]
> 4 nM	CS(=O)(=O)c1ccc(COc2cccc(N3CC4CCC(C3)N4Cc3nc4ccc(C(=O)O)cc4n3C[C@@H]3CCO3)n2)cc1 [Compound 2-14, 2-((−3-(6-((4-(methylsulfonyl)benzyl)oxy)pyridin-2-yl)-3,8-diazabicyclo[3.2.1]octan-8-yl)methyl)-1-(((S)-oxetan-2-yl)methyl)-1H-benzo[d]imidazole-6-carboxylic acid]
> 4 nM	O=C(O)c1ccc2nc(CN3C4CCC3CN(c3cccc(OCc5ccc(C(F)(F)F)cc5F)n3)C4)n(C[C@@H]3CCO3)c2c1 [Compound 2-15, 2-((−3-(6-((2-fluoro-4-(trifluoromethyl)benzyl)oxy)pyridin-2-yl)-3,8-diazabicyclo[3.2.1]octan-8-yl)methyl)-1-(((S)-oxetan-2-yl)methyl)-1H-benzo[d]imidazole-6-carboxylic acid]

Compound	EC50
2-((3-(6-((4-cyano-2-fluorobenzyl)oxy)pyridin-2-yl)-3,8-diazabicyclo[3.2.1]octan-8-yl)methyl)-1-((oxetan-2-yl)methyl)-1H-benzo[d]imidazole-6-carboxylic acid [Compound 2-30]	0.375 nM

— patent publication US20240382471A1, “GLUCAGON-LIKE PEPTIDE-1 RECEPTOR MODULATORS AND USES THEREOF” (HEPAGENE THERAPEUTICS (HK) LIMITED, priority 2021, published 2024)
